“Also recorded” adds a separate entry of the source.
Experiments:
[1] = system: anti-MBP protein IgM antibodies of MS serum; assay: Inhibition (competitive) ELISA, MBP protein coated; assay type: binding, human; settings: tested MS serum; peptides 1 and 2 as inhibitors
Description: (§1) Fifteen Multiple Sclerosis (MS) patients were recruited in the Multiple Sclerosis Clinical Care and Research Centre, Department of Neurosciences, Reproductive Sciences and Odontostomatology, Federico II University (Naples, Italy). The relapsing-remitting MS (RR-MS) patients were previously diagnosed after a lumbar puncture, cerebrospinal fluid analysis, and MRI examination and fulfilled the established international diagnostic criteria ([Polman et al., 2011]; [Thompson et al., 2018]). The present study was conducted in accordance with the Declaration of Helsinki. The performed experimental protocols were approved by the Ethics Committee 2006 (protocol n. 120/06) and 2017 (protocol n. 160/17). […]
(§2) Nunc-Immuno MicroWell 96 well polystyrene ELISA plates (NUNC Maxisorb, product code M9410, Merck, Milan, Italy) were coated with a solution 10 μg/ml of the peptide antigens in pure carbonate buffer 0.05 M (pH 9.6) adding 100 μL/well, and microplates were incubated at 4°C overnight. […] Antibody affinity was measured following the competitive ELISA previously reported ([Real-Fernández et al., 2015]). Semi-saturating sera dilution was previously calculated in preliminary titration curves (absorbance 0.7). […] After approximately 30 min, the reaction was stopped with 1 M NaOH solution (50 μL/well), and the absorbance was read in a multichannel ELISA reader (Tecan Sunrise, Männedorf, Switzerland) at 405 nm. […]

[2] = system: IgM antibodies in MS patient sera; assay: Solid-phase ELISA (SP-ELISA), IgM; assay type: binding, human; settings: peptide coated 10 μg/ml; for patients in whose serum IgM antibodies were detected: 1 out of 15 patients, sera 1:100; for IgM antibody detection (in words): fifteen MS patient sera 1:100, carbonate buffer pH 9.6, anti-human IgM 1:200, 405 nm
Description: Fifteen Multiple Sclerosis (MS) patients were recruited in the Multiple Sclerosis Clinical Care and Research Centre, Department of Neurosciences, Reproductive Sciences and Odontostomatology, Federico II University (Naples, Italy). The relapsing-remitting MS (RR-MS) patients were previously diagnosed after a lumbar puncture, cerebrospinal fluid analysis, and MRI examination and fulfilled the established international diagnostic criteria ([Polman et al., 2011]; [Thompson et al., 2018]). The present study was conducted in accordance with the Declaration of Helsinki. The performed experimental protocols were approved by the Ethics Committee 2006 (protocol n. 120/06) and 2017 (protocol n. 160/17). Blood samplings were performed during the routine follow-up of patients, while the healthy control samplings were carried out during routine health checks or blood donations. Sera samples were obtained for diagnostic purposes from patients and healthy controls who had given their informed consent. Blood samples were centrifuged at 4,000 rpm for 10 min and sera supernatant was stored at -20°C until use.
Immunoassays were performed to evaluate IgM or IgG antibodies in sera by SP-ELISA. At this purpose, the synthetic antigens were coated on 96-well plates (NUNC Maxisorb, product code M9410, Merck, Milan, Italy). Coating conditions were set-up independently for each peptide and results are reported in the Supplementary Material. Polystyrene 96-well ELISA plates were coated with 100 μL/well of a 10 μg/ml solution of synthetic peptide antigens 1-6 diluted in pure carbonate buffer 0.05 M (pH 9.6), independently. After overnight incubation at 4°C, plates were washed (3×) using washing buffer. Nonspecific binding sites were blocked with 100 μL/well of fetal bovine serum buffer (10% FBS in washing buffer) at room temperature for 1 h. FBS buffer was removed, and plates were incubated overnight at 4°C with sera (diluted 1:100 in FBS buffer, 100 μL/well). After three washes, plates were treated with 100 μL/well of anti-human IgG or IgM alkaline phosphatase-conjugated specific antibodies diluted in FBS buffer 1:3,000 (IgG) and 1:200 (IgM) for all tested antigens. […] Colorimetric reaction was carried out adding 100 μl of substrate reaction solution (1 mg/ml pNPP, MgCl2 0.01 M in carbonate buffer, pH 9.6) to each well and plates were read at 405 nm using a TECAN plate reader. After 30 min, the reaction was stopped with 1 M NaOH solution (50 μL/well) and the absorbance was read in a multichannel ELISA reader (Tecan Sunrise, Männedorf, Switzerland) at 405 nm. Antibody titer values were calculated as (mean Abs of serum triplicate)—(mean Abs of blank triplicate) representing graphically the calculated mean values. […]

[3] = Circular dichroism (secondary structure); assay type: physicochemical; settings: for % helix / effect of temperature on secondary structure / self-aggregation (in words) / secondary structure (in words) / effect of temperature on secondary structure (in words): CD; for % helix: H2O:TFE (50:50, v:v); for effect of temperature on secondary structure / self-aggregation (in words): PBS pH 7.4, 10 to 60°C in increments of 5°C; for effect of temperature on secondary structure (in words): Supplementary Figures S14, S15, various temperatures (10 to 60°C)
Description: CD spectra were recorded on JASCO J-815 with increasing temperature from 10 to 60°C in increments of 5°C between λ = 270 and 185 nm. The CD measurements were carried out in H2O, a mixture of H2O:TFE (50:50, v:v) and PBS (phosphate buffered saline, pH 7.4, containing: sodium chloride, potassium chloride, sodium phosphate dibasic, potassium phosphate monobasic). The spectra were registered with the following parameters: 0.2 nm resolution, 1.0 nm bandwidth, 20 mdeg sensitivity, 0.25 s response, 100 nm min^−1 scanning speed, 5 scans, and 0.02 cm cuvette path length. The CD spectra of solvents were recorded and subtracted from the raw data. The spectra were corrected by a baseline that was measured with the identical solvent in the same cell. The CD intensity is given as mean residue molar ellipticity (θ) [deg × cm^2 × dmol^−1].

[4] = NMR conformational analysis in DPC micelles; assay type: physicochemical; settings: 1H NMR (chemical shift and NOE), 100 mM DPC-d38, 50 mM potassium phosphate pH 6.5, 10% D2O, 25°C; remaining regions random coil
Description: The samples for NMR spectroscopy were prepared by dissolving the appropriate amount of peptide in 50 mM potassium phosphate buffer (pH 6.5), 10% D2O, and 100 mM DPC-d38. NMR spectra were recorded on a Varian INOVA 600 MHz spectrometer equipped with a z-gradient 5 mm triple-resonance probe head. Spectra were recorded at a temperature of 25°C. The spectra were calibrated relative to TSP (0.00 ppm) as internal standard. One-dimensional (1D) NMR spectra were recorded in the Fourier mode with quadrature detection. The water signal was suppressed by gradient echo ([Hwang and Shaka, 1995]). 2D DQF-COSY ([Piantini et al., 1982]; [Marion and Wüthrich, 1983]), TOCSY ([Braunschweiler and Ernst, 1983]), and NOESY ([Jenner et al., 1979]) spectra were recorded in the phase-sensitive mode. Data block sizes were 2048 addresses in T2 and 512 equidistant T1 values. Before Fourier transformation, the time domain data matrices were multiplied by shifted sin2 functions in both dimensions. A mixing time of 70 ms was used for the TOCSY experiments. NOESY experiments were run with mixing time of 100 ms.

[5] = system: IgG antibodies in MS patient sera; assay: Solid-phase ELISA (SP-ELISA), IgG; assay type: binding; settings: fifteen MS patient sera 1:100; peptide coated 10 μg/ml, carbonate buffer pH 9.6; anti-human IgG 1:3,000; 405 nm
Description: as §1
Immunoassays were performed to evaluate IgM or IgG antibodies in sera by SP-ELISA. […] Colorimetric reaction was carried out adding 100 μl of substrate reaction solution (1 mg/ml pNPP, MgCl2 0.01 M in carbonate buffer, pH 9.6) to each well and plates were read at 405 nm using a TECAN plate reader. After 30 min, the reaction was stopped with 1 M NaOH solution (50 μL/well) and the absorbance was read in a multichannel ELISA reader (Tecan Sunrise, Männedorf, Switzerland) at 405 nm. Antibody titer values were calculated as (mean Abs of serum triplicate)—(mean Abs of blank triplicate) representing graphically the calculated mean values. […]

[6] = system: anti-MBP (76–116) IgM antibodies of MS serum; assay: Inhibition (competitive) ELISA, MBP (76–116) (2) coated; assay type: binding, human
Description: as §1, §2

Row | Sequence | inhibition of IgM antibody binding to MBP protein (in words) [1] | patients in whose serum IgM antibodies were detected [2] [%] | IgM antibody detection (in words) [2] | % helix ([3]; 25°C) [%] | effect of temperature on secondary structure / self-aggregation (in words) [3] | secondary structure (in words) ([3]; PBS pH 7.4, 25°C) | effect of temperature on secondary structure (in words) [3] | secondary structure (in words) ([3]; water, 25°C) | minimum of CD spectrum attributed to beta structures (aggregation) ([3]; PBS pH 7.4, increasing temperature, temperature-induced self-aggregation) | helical structure, residues [4] | IgG antibody reactivity (in words) [5] | affinity of IgMs in competitive ELISA, fold greater than longer analogue MBP (76–116) (2) ([6]; competitive ELISA, MS serum, compared to the longer analogue) [fold] | antibody affinity/recognition in competitive experiment (in words) ([6]; solution conditions of the competitive experiments, peptide 1 vs. peptide 2)
1 | SQHGRTQDENPVVHFFKNIVTPRTPPPSQGKGRGLSLSRFS [MBP (76–116) (2), elongated synthetic peptide, fragment 76–116 of myelin basic protein] | able to inhibit IgM antibody binding to MBP protein in the tested MS serum with comparable IC50 | 7 | IgM antibodies were detected in one representative patient serum; also recorded: able to detect a high, stable, and reproducible IgM antibody titer | 3 | shift of the minimum to lower wavelength and a strong decrease of the signal intensity; also recorded: temperature-induced peptide self-aggregation, likely in beta structures | random coil structures | no spectral differences of secondary peptide structure at various temperatures | randomly structured in water solution | about 205 nm | 87–96 | – | – | –
2 | TPPPSQGK [MBP (99–106) (6)] | – | – | – | – | – | – | – | – | – | – | nonspecific IgG antibody reactivity | – | –
3 | TQDENPVVHFFKNIVTPRTPPPSQGK [MBP (81–106) (1), synthetic peptide, fragment 81–106 of myelin basic protein, covering the immunodominant region] | able to inhibit IgM antibody binding to MBP protein in the tested MS serum with comparable IC50 | 7 | slightly recognized IgGs and IgMs | 14 | no differences of secondary structure at various temperatures | – | no spectral differences of secondary peptide structure at various temperatures | randomly structured in water solution | – | 87–96 | To a lesser extent, also against peptide MBP (81–106) (1); also recorded: slightly recognized IgGs and IgMs | 4 | recognized more efficiently by antibodies in the solution conditions of the competitive experiments
